Legend:
[1] = test system: lacZ-positive yeast strains EG123 and HR125-5d; assay: Measurement of lacZ marker gene expression in transformed yeast (Example 13); assay type: cell-based, Saccharomyces cerevisiae
Protocol: Because the CMFDG substrate generates a product that is so well retained by cells (Examples 11 and 12), it can be used for quantitative measurements of lacZ expression. • 1. A series of lacZ gene containing plasmids, each with a modified yeast promoter are used. When transferred into the appropriate strains of Saccharomyces cerevisiae, each plasmid confers a different level of lacZ gene expression. Yeast strains EG123 and HR125-5d, transformed with these plasmids, are grown in special minimal medium for plasmid maintenance and, after reaching the appropriate level of growth, are assayed for lacZ gene expression as measured by β-galactosidase activity. • 2. The β-galactosidase activity of one aliquot of these transformed yeast cells is measured using o-nitrophenyl-β-D-galactopyranoside (ONPG). • 3. Another aliquot of yeast cells is loaded with the fluorogenic substrate CMFDG as indicated in Example 12. Following washing to remove any dye that has leaked from the cells, the fluorescence intensity of the remaining cells as measured in a CytoFluor 2300 fluorescence plate reader (Millipore) can be measured over time. […] The amount of increase over time can be calculated from the slope of the plotted increase using linear regression. Each yeast strain accumulates fluorescent product at a characteristic rate, as reflected in the differences in the slopes of the various lines. • 4. […]

NIH 3T3 cells = assay: Cytotoxicity (loss of fluorescence) assay using CMFDG (Example 15); assay type: cell-based; conditions: 10 μM for 30 minutes at 37° C.
Protocol: 1) Reagents 5-Chloromethylfluorescein di-β-D-galactopyranoside (CMFDG) (Example 1) and 7-(β-D-galactopyranosyloxy)-4-chloromethylcoumarin (Cl-MUG) (Example 3) are separately dissolved at 10 mM anhydrous DMSO and stored frozen at −20° C. until needed. Saponin is dissolved in PBS at a concentration of 0.04%.
NIH/3T3 cells (lacZ negative) and CRE BAG 2 cells (3T3 cells transformed with a retrovirus containing latZ gene) are employed for cellular assays. Both cell lines can be obtained from American Type Culture Collection Co., Rockville, Md. The cells are grown in a humidified atmosphere of 5% CO2 in Dulbecco's modified Eagle's medium supplemented with 10% calf serum, 50 μg/mL gentamicin, 300 μg/mL L-glutamine and 10 mM HEPES pH7.4.
The experiment is most conveniently performed in a CytoFluor™ 2300 fluorescence plate reader (Millipore) but can be performed qualitatively on a microscope slide or quantitatively in a flow cytometery, or in any system that permits washing of the cells following addition of the cytotoxic agent. […] Fluorescence of each well is determined using a 485 nm excitation filter, a 530 nm emission filter and sensitivity setting 1. […] Loss of fluorescence from the sample is correlated with the loss of integrity of the membrane and thus the cytotoxicity of the reagent.

[2] = test system: lacZ positive CRE BAG 2 cells; assay: Cellular retention after loading by hypoosmotic shock (Example 12); assay type: cell-based
Protocol: 5-Chloromethylfluorescein di-β-D-galactoside (CMFDG) (Example 1) is dissolved in DMSO to get 20 mM stock solution. A 40 mM stock solution offluorescein di-β-D-galaetoside (FDG) (Molecular Probes) is also made in DMSO as a control. The stock solutions are kept sealed in brown reagent bottles and stored at −20° C.
• (A) FCS-PBS Solution: Phosphate buffered saline (GIBCO), 4% fetal calf serum, 10 mM HEPES, pH 7.2 • (B) Staining Solution: CMFDG: 200 μL of stock solution is diluted with distilled water to 4 mL to get a 1 mM staining solution. FDG: 400 μL of stock solution is diluted to 4 mL with distilled water to get a 4 mM staining solution. 4. Staining and Examination of Cells:
Cells grown on coverslips are transferred to a Petri dish containing 3 mL of FCS-PBS solution and then incubated at 37° C. for 10 minutes. 3 mL of prewarmed (37° C.) 1 mM CMFDG staining solution is added to give a final dye concentration of 0.5 mM The solutions are mixed rapidly. The cells are incubated at 37° C. for exactly one minute. To stop the loading, the cells are transferred to a 1.8 mL of ice-cold FCS-PBS solution. FDG is loaded into cells by using the same procedure except that the final dye concentrations is 2 mM. Cells are then incubated under normal culture conditions to examine the dye retention. Cells are examined without washing at the desired time for their fluorescence under a Zeiss microscope equipped with a FITC filter set (EX 485 nm/EM 530 nm).

[3] = test system: NIH/3T3 cells and CRE BAG 2 cells; assay: Cytotoxicity of CMFDG staining medium (Example 12)
From the text: (§1) The same cell lines as used in Example 11 are used for these experiments.

[4] = test system: NIH/3T3 cells and CRE BAG 2 cells; conditions: 500 μM staining medium for 24 hours
From the text: as §1

O=C1OC2(c3ccc(O[C@@H]4O[C@H](CO)[C@H](O)[C@H](O)[C@H]4O)cc3Oc3cc(O[C@@H]4O[C@H](CO)[C@H](O)[C@H](O)[C@H]4O)ccc32)c2ccc(CCl)cc21 [CMFDG, 5-chloromethylfluorescein di-β-D-galactopyranoside]
fluorescence plotted over time ([1]; each lacZ-positive yeast strain, CytoFluor 2300 plate reader): linear increase in fluorescence
fluorescence intensity over time versus level of lacZ expression (ONPG assay) ([1]; transformed yeast cells): correlates well
fluorescence of loaded cells (NIH 3T3 cells): brightly fluorescent
staining of cells after 10 minutes incubation ([2]; 0.5 mM CMFDG versus 2 mM FDG, hypoosmotic shock loading): very well stained and much brighter
stained cells apparently as bright as after 10 minutes incubation ([2]; after incubation for 4 hours, 0.5 mM): more than 70%
cytotoxicity [3]: no cytotoxicity
cell morphology [4]: morphologically normal
population doubling time versus control [4]: same population doubling time
